# From PubChem BioAssay (NCI)
#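 The compound was tested at five concentrations on cells cultured in 96-well plates, with a 48-hour exposure period. GI50 marks 50% less growth. TGI: total growth inhibition.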
# Columns and labels:
# Assay in all cases: DTP human tumour cell line panel, 48 h
# [1] = system: NCI-H460 lung
# [2] = system: COLO 205 colon
# [3] = system: HCC-2998 colon
# [4] = system: HOP-62 NSCLC
# [5] = system: SK-MEL-2 melanoma
# [6] = system: SR leukemia
# [7] = system: LOX IMVI melanoma
# [8] = system: A549 NSCLC
# [9] = system: NCI-H226 lung
# [10] = system: UO-31 renal
# [11] = system: OVCAR-8 ovarian
# [12] = system: MDA-MB-231 breast
# [13] = system: 786-0 renal
# [14] = system: MCF7 breast
# [15] = system: U251 CNS
# [16] = system: SK-MEL-28 melanoma
# [17] = system: IGROV1 ovarian
# [18] = system: HCT-116 colon
# [19] = system: MDA-MB-435
# [20] = system: SF-295 CNS
# [21] = system: A498 renal
# [22] = system: SF-539 CNS
# [23] = system: UACC-62 melanoma
# [24] = system: SW-620 colon
# [25] = system: OVCAR-5 ovarian
# [26] = system: M14 melanoma
# [27] = system: OVCAR-3 ovarian
# [28] = system: SNB-19 CNS
# [29] = system: SK-OV-3 ovarian
structure (smiles),measurement,setting,value
COc1ccc([C@H]2[C@H](O)C(=O)N2c2cc(OC)c(OC)c(OC)c2)cc1Cl,GI50,[1],< 12.7 nM
same,GI50,[2],< 14.9 nM
same,TGI,[2],< 22.5 nM
same,GI50,[3],< 18.8 nM
same,GI50,[4],< 11.4 nM
same,TGI,[4],> 100000 nM
same,GI50,[5],31.9 nM
same,TGI,[5],> 100000 nM
same,GI50,[6],< 10 nM
same,TGI,[6],> 87200 nM
same,GI50,[7],< 10 nM
same,TGI,[7],> 100000 nM
same,GI50,[8],< 14.1 nM
same,TGI,[8],> 100000 nM
same,GI50,[9],< 10 nM
same,TGI,[9],50500 nM
same,GI50,[10],< 19.2 nM
same,TGI,[10],> 100000 nM
same,GI50,[11],< 14.1 nM
same,GI50,[12],< 16.1 nM
same,TGI,[12],> 100000 nM
same,GI50,[13],< 15.5 nM
same,TGI,[13],> 100000 nM
same,GI50,[14],< 10 nM
same,TGI,[14],> 100000 nM
same,GI50,[15],18.6 nM
same,TGI,[15],> 100000 nM
same,GI50,[16],< 43.4 nM
same,TGI,[16],> 100000 nM
same,GI50,[17],< 11.1 nM
same,TGI,[17],> 100000 nM
same,GI50,[18],< 10 nM
same,TGI,[18],> 62600 nM
same,GI50,[19],< 10 nM
same,TGI,[19],< 10.4 nM
same,GI50,[20],< 10 nM
same,TGI,[20],> 100000 nM
same,GI50,[21],> 59800 nM
same,TGI,[21],> 100000 nM
same,GI50,[22],< 10 nM
same,GI50,[23],< 10 nM
same,TGI,[23],> 100000 nM
same,GI50,[24],< 10 nM
same,TGI,[24],> 100000 nM
same,GI50,[25],< 12 nM
same,TGI,[25],> 100000 nM
same,GI50,[26],< 12.8 nM
same,TGI,[26],> 100000 nM
same,GI50,[27],< 10 nM
same,GI50,[28],< 24.1 nM
same,TGI,[28],> 100000 nM
same,GI50,[29],< 18.7 nM
same,TGI,[29],> 100000 nM
